Data reported in patent publication US20190315823A1, “SMALL CATIONIC ANTI-BIOFILM AND IDR PEPTIDES” (priority 2013, published 2019).
Read-outs that look alike come from different tables or passages of the source. Marks after values point to notes of the source that are not given here. Ends that are not written are not given here. Peptide text beside a SMILES is read from it.

Tests used:
[1] = tested on: human peripheral blood mononuclear cells (MCP-1); assay: SPOT-synthesized derivative screen: production of chemokine MCP-1; type: cell-based; conditions: No LPS
Outline: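 MCP-1 was quantified by capture ELISA in cleared culture supernatants of treated human peripheral blood mononuclear cells. Cells came from heparinized volunteer blood via Ficoll gradient and were seeded at 0.75 to 1×10^6 cells/ml (37 °C, 5% CO2).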

[2] = tested on: LPS-stimulated human peripheral blood mononuclear cells (IL1-β); type: cell-based; conditions: cells stimulated with 10 ng/ml LPS; for IL1β Production (pg/ml): LPS alone 984 pg/ml, starred values (1002-2013) determined separately, LPS alone 889 pg/ml; for IL1β Production: LPS alone 1313 (HH2 derivatives), 1927 (1018 derivatives), 2455 (1002 and hybrid peptides) pg/ml
P. aeruginosa biofilm = type: cell-based; conditions: biofilm
Procedure: Methods of assessment of anti-biofilm activity—Biofilm formation was initially analyzed using a static abiotic solid surface assay as described elsewhere (de la Fuente-Nunez et al., 2012). […] Planktonic cells were removed, biofilm cells adhering to the side of the tubes were stained with crystal violet, and absorbance at 595 nm was measured using a microtiter plate reader (Bio-Tek Instruments Inc., United States). Some peptides were screened against two Gram negative organisms, P. aeruginosa and K. pneumoniae using a Bioflux apparatus (AutoMate Scientific, Berkeley, Calif.; http://www.autom8.com/bioflux_biofilm.html), which allows for the high-throughput, real-time analysis of biofilms.

S. aureus biofilms = assay: checkerboard titration biofilm synergy (MBIC, FIC); type: cell-based
Procedure: Peptides and various conventional antibiotics were analyzed by checkerboard titration into microtiter trays using CLSI methods (Wiegand, I., K. Hilpert, and R. E. W. Hancock. 2008. Nature Protocols 3:163-175), bacteria added and, after overnight incubation at 37° C., the residual biofilm assessed by the crystal violet method mentioned in the body of the grant, with an A595 of 0.2 considered as 100% biofilm inhibition. The effects of the peptide in reducing the minimal biofilm inhibitory concentration (MBIC) of the antibiotic and vice versa were assessed using the Fractional Inhibitory Concentration (FIC) method whereby ΣFTC=FICA+FICB=(CA/MICA)+(CB/MICB), where MBICA and MBICB are the MBICs of peptide A and antibiotic B alone, respectively, and CA and CB (expressed in μg/ml) are the MICs of the drugs in combination. This conventional clinical microbiology assay is interpreted as follows

[3] = tested on: methicillin resistant Staphylococcus aureus (MRSA) biofilm; conditions: approximate peptide concentration […] (around 3 μg/ml); compared to untreated samples
Outline: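 Peptide was present from inoculation onward, with bacteria seeded at 1/100 from overnight cultures into BM2 biofilm medium or Luria Broth. Crystal violet staining of surface-attached cells (A595) quantified biofilm reduction at 22–46 h. K. pneumoniae was additionally screened in a real-time Bioflux flow device for some peptides.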

[4] = Table 12A, background subtracted (21.3 pg/ml)
[5] = Table 12A, 1002-2013 compared to LPS control of 889 pg/ml
[6] = Table 12, human PBMC, peptide at ~18-24 μM
[7] = Table 12, human PBMC, peptide at ~18-24 μM, background subtracted 139 (HH2 derivatives), 170 (1018 derivatives), 242 (1002 and hybrid peptides) pg/ml

Compound | Fold increase in MCP1 cf. untreated cells ([1]; Table 12A) | MCP1 [1, 4] [pg/mL] | Fold change in IL1β relative to no peptide LPS stimulated cells [2, 5] | IL1β Production (pg/ml) ([2]; Table 12A) | MBIC50 P. aeruginosa (P. aeruginosa biofilm) [µg/mL] | Fold increase in MCP1 cf. untreated cells [1, 6] | MCP1 [1, 7] [pg/mL] | Fold change in IL1β relative to no peptide LPS stimulated cells ([2]; Table 12) | IL1β Production ([2]; Table 12) [pg/mL] | FIC (S. aureus biofilms; antibiotic in combination with peptide DJK6) | Fold decrease in antibiotic concentration (S. aureus biofilms; in the presence of peptide DJK6) | % Biofilm inhibition [3] [%]
CC[C@H](C)[C@H](NC(=O)[C@H](CCCNC(=N)N)NC(=O)[C@H](CC(C)C)NC(=O)[C@H](CCC(N)=O)NC(=O)[C@@H](N)Cc1c[nH]c2ccccc12)C(=O)N[C@@H](CCCNC(=N)N)C(=O)N[C@H](C(=O)N[C@@H](CCCCN)C(=O)N[C@H](C(=O)N[C@H](C(=O)N[C@@H](CCCNC(=N)N)C(=O)N[C@@H](CCCCN)C(N)=O)[C@@H](C)CC)C(C)C)C(C)C [Peptide 2012] (H-WQLRIRVKVIRK-NH2; N-terminus assumed) | 227 | 4824 | 0.43 | 381* pg/ml | 20 | – | – | – | – | – | – | –
CC[C@H](C)[C@H](NC(=O)[C@H](CCCNC(=N)N)NC(=O)[C@H](Cc1c[nH]c2ccccc12)NC(=O)[C@@H](NC(=O)[C@@H](NC(=O)[C@H](CC(C)C)NC(=O)[C@H](Cc1c[nH]c2ccccc12)NC(=O)[C@H](CCCNC(=N)N)NC(=O)[C@H](CCC(N)=O)NC(=O)[C@@H](N)C(C)C)[C@@H](C)CC)C(C)C)C(=O)N[C@@H](CCCNC(=N)N)C(=O)N[C@@H](CCCCN)C(N)=O [Peptide 1002] (H-VQRWLIVWRIRK-NH2; N-terminus assumed) | 576 | 11994 | 0.13 | 111* pg/ml | 5 | 3.5 | 603.2 | 0.05 | 127 | – | – | –
CC[C@H](C)[C@H](NC(=O)[C@H](CCCNC(=N)N)NC(=O)[C@H](CC(C)C)NC(=O)[C@H](CCC(N)=O)NC(=O)[C@@H](N)C(C)C)C(=O)N[C@@H](CCCNC(=N)N)C(=O)N[C@H](C(=O)N[C@@H](C)C(=O)N[C@H](C(=O)N[C@H](C(=O)N[C@@H](CCCNC(=N)N)C(=O)N[C@@H](C)C(N)=O)[C@@H](C)CC)C(C)C)C(C)C [HH2] (H-VQLRIRVAVIRA-NH2; N-terminus assumed) | 43 | 896 | 0.53 | 469* pg/ml | >80 | 3.6 | 450 | 1.00 | 1307 | – | – | –
CC[C@H](C)[C@H](NC(=O)[C@H](CCCNC(=N)N)NC(=O)[C@H](Cc1c[nH]c2ccccc12)NC(=O)[C@H](CCCNC(=N)N)NC(=O)[C@@H](NC(=O)[C@H](CC(C)C)NC(=O)[C@H](Cc1c[nH]c2ccccc12)NC(=O)[C@H](CCCNC(=N)N)NC(=O)[C@H](CCC(N)=O)NC(=O)[C@@H](N)CCCCN)[C@@H](C)CC)C(=O)N[C@@H](CCCNC(=N)N)C(=O)N[C@@H](CCCCN)C(N)=O [Peptide 2010] (H-KQRWLIRWRIRK-NH2; N-terminus assumed) | 266 | 5649 | 0.42 | 377* pg/ml | 2.5 | – | – | – | – | – | – | –
CC[C@H](C)[C@H](NC(=O)[C@H](CCCNC(=N)N)NC(=O)[C@H](CC(C)C)NC(=O)[C@H](CCC(N)=O)NC(=O)[C@@H](N)C(C)C)C(=O)N[C@@H](CCCNC(=N)N)C(=O)N[C@H](C(=O)N[C@@H](CCCCN)C(=O)N[C@H](C(=O)N[C@H](C(=O)N[C@@H](CCCNC(=N)N)C(=O)N[C@@H](CCCCN)C(N)=O)[C@@H](C)CC)C(C)C)C(C)C [Peptide 2011] (H-VQLRIRVKVIRK-NH2; N-terminus assumed) | 38 | 796 | 0.62 | 550* pg/ml | 10 | – | – | – | – | – | – | –
CN[C@H](CC(C)C)C(=O)N[C@H]1C(=O)N[C@@H](CC(N)=O)C(=O)N[C@H]2C(=O)N[C@H]3C(=O)N[C@H](C(=O)N[C@H](C(=O)O)c4cc(O)cc(O)c4-c4cc3ccc4O)[C@H](O)c3ccc(c(Cl)c3)Oc3cc2cc(c3O[C@@H]2O[C@H](CO)[C@@H](O)[C@H](O)[C@H]2O[C@H]2C[C@](C)(N)[C@H](O)[C@H](C)O2)Oc2ccc(cc2Cl)[C@H]1O [Vancomycin] | – | – | – | – | – | – | – | – | – | 0.4 | 16 | –
1002-I12: single substituted 1002 peptide (VQRWLIVWRIRI-NH2) [Peptide 1002-I12] | – | – | – | – | – | 0.9 | -36.2 | 0.05 | 127 | – | – | 66
1002-R10: single substituted 1002 peptide (VQRWLIVWRRRK-NH2) [Peptide 1002-R10] | – | – | – | – | – | 2.5 | 375.3 | 0.05 | 127 | – | – | 15
HH2-W6: single substituted HH2 peptide (VQLRIWVAVIRA-NH2) | – | – | – | – | – | 4.1 | 534 | 0.55 | 718 | – | – | 56
1002-I11: single substituted 1002 peptide (VQRWLIVWRIIK-NH2) [Peptide 1002-I11] | – | – | – | – | – | 2.0 | 238.8 | 0.05 | 127 | – | – | 67
1018-W1: single substituted 1018 peptide (WRLIVAVRIWRR-NH2) [Peptide 1018-W1] | – | – | – | – | – | 5.0 | 684 | 0.16 | 204 | – | – | 68
1018-W5: single substituted 1018 peptide (VRLIWAVRIWRR-NH2) [Peptide 1018-W5] | – | – | – | – | – | 0.8 | -28 | 0.10 | 127 | – | – | 55
1002-A11: single substituted 1002 peptide (VQRWLIVWRIAK-NH2) [Peptide 1002-A11] | – | – | – | – | – | 3.0 | 485.3 | 0.05 | 127 | – | – | 52
